Laboratory results from patent US11351134B2, “Small molecule agents, compositions, and formulations, for internal use, displaying inhibitory activity against gram-positive and/or gram-negative organisms” (NATUREZA, INC., priority 2017, dated 2022).
Like-named read-outs stand apart in the source and are kept apart here.

What was measured:
Format in all cases: cell-based
[1] = system: Gram-positive pathogens and Gram-negative pathogens; test: In vitro inhibitory activity of chitosan- or carrier-containing particles; conditions: synthesis (with chitosan) at pH 7 with positively charged chitosan
Excerpt: (§1) For TABLES 1 to 3, compositions were generally prepared as described above, and as further outlined in this paragraph. For these examples, the active component, as a lauric acid derivative or lauric acid, was suspended in an organic solvent, chloroform, and then mixed with water, under robust agitation. The amount of water to the amount of chloroform was at least about 2:1, and could be as high as 10:1. Chloroform was then evaporated (e.g., under vacuum using a freeze dryer). After removal of the chloroform, a 2.2% lecithin solution in an acetate buffer (e.g., 98 mM acetic acid and 2 mM sodium acetate) was prepared and added, so the final amount of the active component was about 1 part active component mixture and about 9 parts of the 2.2% lecithin solution. Of course, it is noted that other ranges to achieve final amount of the active component as described above (e.g., active component mixture and lecithin solution) may also be utilized. Cholesterol could also be optionally added. The mixture of lecithin and the active component was mixed and sonicated, and then a solution of about 1.5% chitosan was added. Thereafter, the entirety of the mixture containing the lecithin and the active component was further blended, in which a final ratio was about 1 part active component to about 9 parts of the 2.2% lecithin solution to about 10 parts of the 1.5% chitosan solution. The pH was then varied, to a pH of 5, or a pH of 7, or a pH of 9. In some mixtures having a pH of 7, a chemical agent imparting a positive charge to the chitosan was included in a form of glycol chitosan. In these tests, the chemical agent used was glycol. In these examples, the amount of chemical agent, glycol was about one molecule glycol moiety to one molecule chitosan sacharide unit; higher amounts of glycol moieties are also acceptable, while lower amounts of glycol moieties were often found to decrease overall inhibitory activity associated with a composition when formed and tested in vitro. It is noted that negatively charged chitosan containing particles were prepared. […] After mixing, the mixtures could each be filtered through a […] filter. In some tests, the mixtures were sonicated before filtering. Sonication produced small particles. In some studies, particles were freeze dried as a powder (generally, after mixing, sonicating and filtering).
(§2) The positive controls were prepared and evaluated in a similar manner. All prepared samples were tested using a broth microdilution test.
This also occurs when the chitosan- or carrier-containing particle includes an active component that has a log P value that is less than 4 and includes a methyl and/or ethyl side chain (e.g., 12-amino-1-dodecanoic acid methyl ester). […]

[2] = system: E. coli; test: Broth microdilution MIC of lecithin/chitosan particle compositions; conditions: maximum concentration tested 10 mg/ml; for MIC: Escherichia coli
Protocol: (§3) Initially, to determine basic characteristics, each active component was separately mixed, generally under agitated conditions, with water, and each was miscible with water. Each, after being mixed with water, was tested in a broth microdilution assay, against a variety of bacteria using amounts of the each of the lauric acid derivatives, ranging from about 0.0009 wt. % to about 8 wt. %. The bacteria included Escherichia coli, and Staphylococcus aureus (including MRSA strains). The minimum inhibitory concentration (MIC) needed to prevent growth of the target bacteria was evaluated based on a method published by Clinical Laboratory Standards Institute (CLSI), broth microdilution method M-07 (M07). […] Each of the samples containing one of the lauric acid derivatives was compared with a positive control, decanoic acid.
as §1, §2

[3] = system: S. epidermidis; test: as above; conditions: Staphylococcus epidermidis; lecithin/chitosan particle composition; prep. mixture pH 5 or pH 7; maximum concentration tested 10 mg/ml; read-out: MIC (mg/ml) for S. epidermidis (chitosan prep. mixture was at pH 5 or at pH 7)
Protocol: as §3, §1, §2

COC(=O)CCCCCCCCCCCN.Cl [12-amino-1-dodecanoic acid methyl ester HCl]
Inhibitory activity against both Gram-positive pathogens and Gram-negative pathogens [1]: stronger inhibitory activity as well as broad spectrum activity | MIC ([2]; lecithin/chitosan particle composition, prep. mixture pH 9, read-out: MIC (mg/ml) for E. coli (chitosan prep. mixture was at pH 9)): 10 mg/mL | MIC ([2]; lecithin/glycol chitosan particle composition, prep. mixture pH 7, read-out: MIC (mg/ml) for E. coli (chitosan prep. mixture was at pH 7 with glycol chitosan)): 0.8 mg/mL | MIC (mg/ml) for E. coli (chitosan prep. mixture was at pH 5 or at pH 7) ([2]; lecithin/chitosan particle composition, prep. mixture pH 5 or pH 7): — (no inhibitory activity) | MIC [3]: 10 mg/mL
